Source: patent publication US6218393A, “Anthranilic acid derivatives as multi drug resistance modulators” (priority 1997, dated 2001)

Key:
[1] = tested on: AR 1.0 cells; assay: Potentiation of doxorubicin toxicity: proliferation assay (sulphorhodamine B); format: cell-based, mouse
Description: (a) Selected compounds of formula (I) were examined for their ability to potentiate the toxicity of doxorubicin in AR 1.0 cells.

[2] = tested on: AR 1.0 cells; assay: Drug accumulation assay: daunorubicin accumulation in AR 1.0 cells; format: cell-based; conditions: Mus musculus, 100% = accumulation with verapamil 100 μM, 1 hr, 37° C.
Summary of the method: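 AR 1.0 is the MDR-resistant subline of EMT6 mouse mammary carcinoma, grown in RPMI 1640 with 10% foetal calf serum and 2 mM glutamine at 37 °C, 5% CO2. Cells were seeded 48 h before the daunorubicin accumulation assay.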

[3] = tested on: AR 1.0 cells; assay: Potentiation index with doxorubicin titration; format: cell-based, mouse; conditions: for Potentiation Index at RMA concentration 300 nM: Table C2, RMA 300 nM; for Potentiation Index at RMA concentration 500 nM: Table C2, RMA 500 nM; for Potentiation Index at RMA concentration 100 nM: Table C2, RMA 100 nM; for Potentiation Index at RMA concentration 30 nM: Table C2, RMA 30 nM
Summary of the method: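 MDR-resistant mouse EMT6 subline AR 1.0 grown four days with a doxorubicin titration (0.263 nM-17.24 μM) plus a fixed compound concentration; proliferation by sulphorhodamine B. Potentiation index derived from doxorubicin IC50 alone versus with compound.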

[4] = Mus musculus, 96 h, compound alone, four day proliferation, read-out: Compound Toxicity (IC50)
[5] = with fixed doxorubicin 0.34 μm, four days, 5760 min, read-out: Toxicity with Cytotoxic Agent (IC50)

Row | IC50 [2] [µM] | SMILES | IC50 [1, 4] [µM] | IC50 [1, 5] [µM] | Potentiation Index at RMA concentration 300 nM [3] | Potentiation Index at RMA concentration 500 nM [3] | Potentiation Index at RMA concentration 100 nM [3] | Potentiation Index at RMA concentration 30 nM [3]
1 | 1.3 | COc1cc2c(cc1OC)CN(CCc1ccc(NC(=O)c3ccccc3NC(=O)c3cccc4ccccc34)cc1)CC2 [compound 9470] | 3.5 | 0.075 | 26 | 90 | – | –
2 | 0.2 | COc1cc2c(cc1OC)CN(CCc1ccc(NC(=O)c3ccccc3NC(=O)c3cccs3)cc1)CC2 [compound 9471, Thiophene-2-carboxylic acid (2-{4-[2-(6,7-dimethoxy-3,4-dihydro-1H-isoquinolin-2-yl)-ethyl]-phenylcarbamoyl}-phenyl)-amide] | 2.6 | – | 115 | 230 | – | –
3 | 0.35 | COc1cc2c(cc1OC)CN(CCc1ccc(NC(=O)c3ccccc3NC(=O)c3ccc4ccccc4c3)cc1)CC2 [compound 9476, Naphthaiene-2-carboxylic acid (2-{4-[2-(6,7-dimethoxy-3,4-dihydro-1H-isoquinolin-2-yl)-ethyl]-phenylcarbamoyl}-phenyl)-amide] | 2 | – | 83 | 136 | – | –
4 | 0.41 | COc1cc2c(cc1OC)CN(CCc1ccc(NC(=O)c3ccccc3NC(=O)c3ccccc3OC)cc1)CC2 [compound 9477, 2-(2-Methoxy-benzoylamino)-N-{4-[2-(617-dimethoxy-3,4-dihydro-1H-isoquinolin-2-yl)-ethyl]-phenyl}-benzamide] | 4 | – | 29 | 63 | – | –
5 | 1.7 | COc1cc2c(cc1OC)CN(CCc1ccc(NC(=O)c3ccccc3NC(=O)c3ccncc3)cc1)CC2 [compound 9483, N-(2-{4-[2-(6,7-Dimethoxy-3,4-dihydro-1H-isoquinolin-2-yl)-ethyl]-phenylcarbamoyl}-phenyl}-isonicotinamide] | 8.5 | 0.35 | 14 | 24 | – | –
6 | 0.15 | COc1cc2c(cc1OC)CN(CCc1ccc(NC(=O)c3ccccc3NC(=O)c3ccccc3F)cc1)CC2 [compound 9489, 2-(2-Fluoro-benzoylamino)-N-{4-[2-(6,7-dimethoxy-3,4-dihydro-1H-isoquinolin-2-yl)-ethyl]-phenyl}-benzamide] | 7 | 0.05 | 192 | 303 | 77 | –
7 | 0.22 | COc1cc2c(cc1OC)CN(CCc1ccc(NC(=O)c3ccccc3NC(=O)c3cnccn3)cc1)CC2 [compound 9493, Pyrazine-2-carboxylic acid (2-{4-[2-(6,7-dimethoxy-3,4-dihydro-1H-isoquinolin-2-yl)-ethyl]-phenylcarbamoyl}-phenyl)-amide] | 9 | 0.05 | 85 | 200 | 7.6 | –
8 | 0.4 | COc1cc2c(cc1OC)CN(CCc1ccc(NC(=O)c3ccccc3NC(=O)c3ccccc3Cl)cc1)CC2 [compound 9494] | 9 | 0.05 | 38 | 148 | – | –
9 | 0.5 | COc1cc2c(cc1OC)CN(CCc1ccc(NC(=O)c3ccccc3NC(=O)c3cccc(Cl)c3)cc1)CC2 [compound 9495, 2-(3-chloro-benzoylamino)-N-{4-[2-(617-dimethoxy-3,4-dihydro-1H-isoquinolin-2-yl)-ethyl]-phenyl}-benzamide] | 4 | – | 261 | 567 | 15 | 1.3
10 | 0.48 | COc1cc2c(cc1OC)CN(CCc1ccc(NC(=O)c3ccccc3NC(=O)c3ccc(Cl)cc3)cc1)CC2 [compound 9496, 2-(4-chloro-benzoylamino)-N-{4-[2-(6,7-dimethoxy-3,4-dihydro-1H-isoquinolin-2-yl)-ethyl]-phenyl}-benzamide] | 4 | 0.03 | 254 | 825 | 19 | 1.6
